Laboratory results taken from ChEMBL document CHEMBL1201862, “PubChem BioAssay data set” (2004).
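How tested: cells in 96-well plates exposed to compound for 48 hours at five concentrations. GI50: concentration for 50% inhibition of growth.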 Calls of active or inactive are those of the source. Cut-off read from the data, not from the text of the source: active = GI50 up to about 1.1 µM and inactive = higher.

Tests used:
Test in all cases: NCI-60 cell line screen, 48 h
MOLT-4 = system: MOLT-4
SF-268 = system: SF-268
OVCAR-5 = system: OVCAR-5
TK-10 = system: TK-10
OVCAR-4 = system: OVCAR-4
IGROV-1 = system: IGROV-1
ACHN = system: ACHN
NCI-H460 = system: NCI-H460
HOP-62 = system: HOP-62
K562 = system: K562
RPMI-8226 = system: RPMI-8226
A549 = system: A549
HOP-92 = system: HOP-92
SNB-75 = system: SNB-75
KM12 = system: KM12
SK-MEL-5 = system: SK-MEL-5
SF-539 = system: SF-539

| SMILES | GI50 (MOLT-4) | GI50 (SF-268) | GI50 (OVCAR-5) | GI50 (TK-10) | GI50 (OVCAR-4) | GI50 (IGROV-1) | GI50 (ACHN) | GI50 (NCI-H460) | GI50 (HOP-62) | GI50 (K562) | GI50 (RPMI-8226) | GI50 (A549) | GI50 (HOP-92) | GI50 (SNB-75) | GI50 (KM12) | GI50 (SK-MEL-5) | GI50 (SF-539) |
| --- | --- | --- | --- | --- | --- | --- | --- | --- | --- | --- | --- | --- | --- | --- | --- | --- | --- |
| CCCOC(=O)C1CCC(=O)N1C(=O)C(C)Cl (centres undefined) | > 100 µM (inactive) | > 100 µM (inactive) | > 100 µM (inactive) | > 100 µM (inactive) | > 100 µM (inactive) | > 100 µM (inactive) | > 100 µM (inactive) | > 100 µM (inactive) | > 100 µM (inactive) | > 100 µM (inactive) | > 100 µM (inactive) | > 100 µM (inactive) | > 100 µM (inactive) | > 100 µM (inactive) | > 100 µM (inactive) | > 100 µM (inactive) | – |
| CC12OC(=O)C(C#N)C1(C)C1C(=O)CCCC12 (centres undefined) | > 100 µM (inactive) | > 100 µM (inactive) | > 100 µM (inactive) | > 100 µM (inactive) | > 100 µM (inactive) | > 100 µM (inactive) | > 100 µM (inactive) | > 100 µM (inactive) | – | > 100 µM (inactive) | > 100 µM (inactive) | > 100 µM (inactive) | – | > 100 µM (inactive) | > 100 µM (inactive) | > 100 µM (inactive) | > 100 µM (inactive) |
| C/C=C(\C)C(=O)N1c2ccccc2CC1c1c(C)[nH]c2ccccc12 (centres undefined) | 19.9 µM (inactive) | – | 37.3 µM (inactive) | 73.3 µM (inactive) | 4.15 µM (inactive) | 39.6 µM (inactive) | 55.8 µM (inactive) | 37.9 µM (inactive) | > 100 µM (inactive) | 39.6 µM (inactive) | 25.3 µM (inactive) | > 100 µM (inactive) | 12.2 µM (inactive) | 35 µM (inactive) | 26.7 µM (inactive) | > 10 µM (inactive) | 50.8 µM (inactive) |
| COc1cc(C2c3cc4c(cc3[C@@H](NCCN3CCCCC3)C3COC(=O)[C@H]23)OCO4)cc(OC)c1O (some centres undefined) | 0.0164 µM (active) | 0.346 µM (active) | 1.41 µM (inactive) | 1.65 µM (inactive) | 0.253 µM (active) | 1.33 µM (inactive) | 0.486 µM (active) | – | 0.064 µM (active) | 0.615 µM (active) | 0.277 µM (active) | 0.0656 µM (active) | 0.142 µM (active) | – | 1.01 µM (active) | 0.394 µM (active) | 0.134 µM (active) |
| CCCCN(CCCC)CC(C(=O)Nc1ccc([N+](=O)[O-])cc1[N+](=O)[O-])/C(C)=N\NC(=S)NN (centres undefined) | 70 µM (inactive) | > 100 µM (inactive) | > 100 µM (inactive) | > 100 µM (inactive) | – | > 100 µM (inactive) | 56.6 µM (inactive) | > 100 µM (inactive) | > 100 µM (inactive) | 40.7 µM (inactive) | 50.1 µM (inactive) | > 100 µM (inactive) | 42.1 µM (inactive) | > 100 µM (inactive) | > 100 µM (inactive) | > 100 µM (inactive) | > 100 µM (inactive) |
| O=C(O)CNCc1c2ccccc2[n+]([O-])c2ccccc12 | 31 µM (inactive) | 43.8 µM (inactive) | > 100 µM (inactive) | > 100 µM (inactive) | 49.3 µM (inactive) | 91.6 µM (inactive) | 57.4 µM (inactive) | 72.4 µM (inactive) | > 100 µM (inactive) | 38.2 µM (inactive) | 30.8 µM (inactive) | > 100 µM (inactive) | 16.9 µM (inactive) | 34.5 µM (inactive) | 51.1 µM (inactive) | 48.1 µM (inactive) | – |
| O=C1c2cccc3cc([N+](=O)[O-])cc(c23)C(=O)N1CCCN1CCN(CCCN2C(=O)c3cccc4cc([N+](=O)[O-])cc(c34)C2=O)CC1 | 0.027 µM (active) | – | 1.65 µM (inactive) | 0.798 µM (active) | 0.0925 µM (active) | 0.0628 µM (active) | < 0.01 µM (active) | 0.0142 µM (active) | 2.88 µM (inactive) | 0.0232 µM (active) | 0.0887 µM (active) | 0.0381 µM (active) | 0.237 µM (active) | 1.38 µM (inactive) | 0.063 µM (active) | 0.0853 µM (active) | 0.313 µM (active) |
| COC(=O)C(=O)C(C#N)c1cccc(Cl)c1 (centres undefined) | > 100 µM (inactive) | > 100 µM (inactive) | > 100 µM (inactive) | > 100 µM (inactive) | > 100 µM (inactive) | > 100 µM (inactive) | > 100 µM (inactive) | > 100 µM (inactive) | > 100 µM (inactive) | > 100 µM (inactive) | > 100 µM (inactive) | > 100 µM (inactive) | – | > 100 µM (inactive) | > 100 µM (inactive) | > 100 µM (inactive) | > 100 µM (inactive) |
| COc1ccc(/C(Cl)=C/c2cc(OC)ccc2OC)cc1 | 49.9 µM (inactive) | 58.2 µM (inactive) | – | – | > 100 µM (inactive) | > 100 µM (inactive) | 65.8 µM (inactive) | – | > 100 µM (inactive) | 47 µM (inactive) | 34.2 µM (inactive) | 75.2 µM (inactive) | 40.8 µM (inactive) | 40.1 µM (inactive) | – | 64.7 µM (inactive) | 64.7 µM (inactive) |
